From patent US20040224898A1, “Compositions and methods for promoting lipid mobilization in humans” (priority 2002, published 2004) come the findings set out here.

Bridges are numbered along the chain shown (N, C = ends). Where no end group is shown, it is not given here.

Common to all, as to format: cell-based
For assay [1], the system named is human adipocytes. Description: Glycerol release assay. Conditions: for Ability to promote lipid mobilization in human adipocytes: conclusion of Example 2; for Lipid mobilizing activity: control hormones, Example 2. The method, then:
(§1) Human pre-adipocytes were isolated by liposuction and maintained in AGM for three weeks in order to permit the pre-adipocytes to differentiate to become mature adipocytes. AGM was removed, and adipocytes were incubated in Krebs-Ringers buffer comprising 0.1% fatty acid-free BSA at 37° C. for five hours in the presence of selected concentrations (10^−9 to 10^−5 molar) of one of Schistocera gregaria AKH II, cockroach hypertrehalosemic factor (obtained from Sigma Chemical Co, St. Louis, Mo., catalog number P0175), and Locusta migratoria AKH I (obtained from American Peptide Co., Sunnyvale, Calif., catalog number 60-9-18). Glycerol released from the adipocytes was assayed using a commercially available kit (GPO-trinder assay kit available form Sigma Chemical Company, St. Louis, Mo.).
A similar experiment was performed, in which glycerol release from adipocytes was assessed in the presence of the Locusta migratoria AKH I or the cockroach hypertrehalosemic factor or in the presence of isoproterenol.

Assay [2] deals with human adipocytes. Description: Release of tritium label from radiolabeled palmitate (lipid mobilizing activity). To be noted: for Ability to mobilize lipids in adipocytes: conclusion of Example 1, murine adipocytes. The method, then: Lipid mobilizing activity was assessed by assaying release of tritium label from radiolabeled palmitate. This assay was performed by maintaining human pre-adipocytes in Adipocyte Growth Medium (AGM), which is Dulbecco's Modified Eagle's Medium (DMEM) mixed 1:1 by volume with Ham's F-10 medium. Ham's F-10 medium comprises 15 millimolar HEPES buffer adjusted to pH 7.4 and supplemented with biotin, pantothenate, human recombinant insulin, dexamethasone, fungicide, bactericide, and 3% (v/v) fetal bovine serum). Pre-adipocytes differentiated to become mature adipocytes by three weeks of maintenance in AGM. On the day prior to assay, the adipocytes were washed and incubated overnight in Krebs-Ringers buffer comprising 0.1% fatty acid-free bovine serum albumin (BSA) and comprising 1 microCurie per milliliter of tritiated (9,10-^3H) palmitate. The following day, the medium was removed, and the cells were washed three times […]. Isoproterenol (0 to 5×10^−8 molar), Schistocera gregaria AKH II (0 to 5×10^−5 molar), or Krebs-Ringer buffer (with 0.1% fatty acid-free BSA) containing neither of these was added to the cell suspension in a volume of 150 microliters. The suspensions were incubated for 4 hours at 37° C., and then 100 microliters of each sample was subjected to scintillation counting to detect released label in the supernatant. The total amount of label incorporated was determined for each well by solubilizing the cells using 1% sodium dodecyl sulfate and subjecting the entire contents of the well to scintillation counting. Fractional release of label was calculated by dividing the amount of label detected in cell supernatant by the total amount of label detected in the supernatant and in the cells remaining in the well, and percentage release was calculated by multiplying fractional release by 100.
A similar study was done using the same methods, except that cockroach hypertrehalosemic factor (0 to 5×10^−5 molar) was used in place of S. gregaria AKH II.
A similar tritium label release experiment performed using Heliothis zea AKH II and Locusta migratoria, except that a two-hour incubation period was used in place of a 4 hour incubation period.

The subject of assay [3] is human adipocytes. The assay can be described thus: Effect of propanolol on agent-induced glycerol release. Conditions: for Glycerol Release, No Agent (medium concentration in millimolar): propanolol alone. Here is the method:
as §1
Glycerol release assays were performed as described in Example 2, except that the assays were performed using single selected concentrations of one of cockroach hypertrehalosemic factor, Locusta migratoria AKH I, and isoproterenol and multiple selected concentrations of propanolol.

Setting [4] is: agent 1 × 10^−5 molar, five hours, 37° C., Table 8 experiment.
[5] abbreviates: agent 1 × 10^−6, Table 9 experiment.
The mark [6] stands for this setting: agent 1 × 10^−6 molar, five hours, 37° C., Table 8 experiment.
Where [7] appears, read: agent 1 × 10^−7, Table 9 experiment.
[8] abbreviates: agent 1 × 10^−7 molar, five hours, 37° C., Table 8 experiment.
Setting [9] is: agent 1 × 10^−8, Table 9 experiment.
The mark [10] stands for this setting: agent 1 × 10^−8 molar, five hours, 37° C., Table 8 experiment.
[11] abbreviates: agent 1 × 10^−9 molar, five hours, 37° C., Table 8 experiment.
Where [12] appears, read: agent 1 × 10^−8 molar, 4 hours, 37° C., Table 5 experiment.
Setting [13] is: agent 1 × 10^−9 molar, 4 hours, 37° C., Table 5 experiment.
[14] abbreviates: agent 1 × 10^−10 molar, 4 hours, 37° C., Table 5 experiment.

As to “ELNFTPNWGT (listed as Schistocerca gregaria) [Locusta migratoria AKH I, insect adipokinetic hormone, American Peptide Co. catalog number 60-9-18]”, the “Glycerol Release with Agent (medium concentration in millimolar)” value (“Glycerol Release with Agent” for short) in the assay with human adipocytes [1] (agent 1 × 10^−5, Table 9 experiment) stood at 0.0871 ± 0.0134 millimolar; in the assay on human adipocytes [1] (setting [4]) it was 0.691 millimolar; with human adipocytes [1] (setting [5]), 0.0427 ± 0.0129 millimolar; in the assay on human adipocytes [1] (setting [6]), 0.467 millimolar; with human adipocytes [1] (setting [7]), 0.0336 ± 0.0082 millimolar; in the assay on human adipocytes [1] (setting [8]) it was 0.490 millimolar. In addition, the “Glycerol Release with Agent” value in the assay on human adipocytes [1] (setting [9]) amounted to 0.0209 ± 0.0110 millimolar; in the assay with human adipocytes [1] (setting [10]), 0.476 millimolar; in the assay with human adipocytes [1] (setting [11]), 0.611 millimolar; in the assay with human adipocytes [3] (agent 10 micromolar, propanolol 0 molar), 0.0871 ± 0.0134 millimolar; with human adipocytes [3] (agent 10 micromolar, propanolol 1 × 10^−5 molar), 0.2214 ± 0.0287 millimolar; in the assay on human adipocytes [3] (agent 10 micromolar, propanolol 1 × 10^−6 molar), 0.2169 ± 0.0294 millimolar. In addition, in the assay on human adipocytes [3] (agent 10 micromolar, propanolol 1 × 10^−7 molar), the “Glycerol Release with Agent” value is given as 0.2486 ± 0.0249 millimolar. The “Ability to promote lipid mobilization in human adipocytes” value in the assay on human adipocytes [1] is given as “able to promote lipid mobilization”. Besides, the “% Tritium Label Release with Agent” value in the assay on human adipocytes [2] (agent 1 × 10^−5 molar, two-hour incubation, Table 7) is listed as 10.8%; with human adipocytes [2] (agent 1 × 10^−6 molar, two-hour incubation, Table 7) it was 7.52%; with human adipocytes [2] (agent 1 × 10^−7 molar, two-hour incubation, Table 7), 6.34%; in the assay with human adipocytes [2] (agent 1 × 10^−8 molar, two-hour incubation, Table 7), 7.00%; with human adipocytes [2] (agent 1 × 10^−9 molar, two-hour incubation, Table 7), 7.44%; in the assay with human adipocytes [2] (agent 1 × 10^−10 molar, two-hour incubation, Table 7), 7.62%. Besides, the “Ability to mobilize lipids in adipocytes” value with human adipocytes [2] is given as “able to mobilize lipids”.

Take “SYSMEHFRWGKPV (Ac-SYSMEHFRWGKPV-NH2; listed as Insect sp.) [alpha-melanocyte stimulating hormone, reference compound]”: the Lipid mobilizing activity result in the assay with human adipocytes [1] is “No lipid mobilizing activity could be detected”.

Consider “ELNFSTGW (listed as Schistocerca gregaria) [Schistocera gregaria AKH II, insect adipokinetic hormone of the desert locust]”, for which the “Glycerol Release with Agent” value in the assay with human adipocytes [1] (setting [4]) was 0.693 millimolar; in the assay with human adipocytes [1] (setting [6]), 0.628 millimolar; in the assay on human adipocytes [1] (setting [8]) it was 0.530 millimolar; with human adipocytes [1] (setting [10]), 0.523 millimolar; in the assay with human adipocytes [1] (setting [11]) it was 0.486 millimolar. The “Ability to promote lipid mobilization in human adipocytes” value with human adipocytes [1] is on record as “able to promote lipid mobilization”. The “% Tritium Label Release with Agent” value with human adipocytes [2] (agent 1 × 10^−5 molar, 4 hours, 37° C., Table 5 experiment) was found to be 14.28%; with human adipocytes [2] (agent 1 × 10^−6 molar, 4 hours, 37° C., Table 5 experiment), 13.38%; in the assay on human adipocytes [2] (agent 1 × 10^−7 molar, 4 hours, 37° C., Table 5 experiment), 10.76%; with human adipocytes [2] (setting [12]), 10.76%; with human adipocytes [2] (setting [13]), 9.6%; with human adipocytes [2] (setting [14]) it was 10.74%. In addition, the “% Tritium Label Release with Agent” value came out at 16.65% with human adipocytes [2] (agent 5 × 10^−5 molar, 4 hours, 37° C., Table 5 experiment); 14.94% with human adipocytes [2] (agent 5 × 10^−6 molar, 4 hours, 37° C., Table 5 experiment); 11.31% with human adipocytes [2] (agent 5 × 10^−7 molar, 4 hours, 37° C., Table 5 experiment). For the same molecule, the “Ability to mobilize lipids in adipocytes” value in the assay with human adipocytes [2] is “able to mobilize lipids”.

With `CC(C)NCC(O)c1ccc(O)c(O)c1` (stereo not shown) [Isoproterenol, isoproterenol, reference compound], the “Glycerol Release with Agent” value in the assay with human adipocytes [1] (setting [5]) was found to be 0.5172 ± 0.1659 millimolar; with human adipocytes [1] (setting [7]), 0.2169 ± 0.0316 millimolar; in the assay on human adipocytes [1] (setting [9]), 0.1325 ± 0.0244 millimolar; in the assay with human adipocytes [1] (agent 1 × 10^−9, Table 9 experiment) it was 0.0381 ± 0.011 millimolar; with human adipocytes [3] (agent 1 micromolar, propanolol 0 molar), 0.5172 millimolar; with human adipocytes [3] (agent 1 micromolar, propanolol 1 × 10^−5 molar), 0.2305 millimolar. Moreover, the “Glycerol Release with Agent” value in the assay with human adipocytes [3] (agent 1 micromolar, propanolol 1 × 10^−6 molar) was determined as 0.411 millimolar; in the assay on human adipocytes [3] (agent 1 micromolar, propanolol 1 × 10^−7 molar), 0.6533 millimolar. Besides, the “% Tritium Label Release with Agent” value turned out to be 15.58% in the assay on human adipocytes [2] (setting [12]); 9.8% in the assay with human adipocytes [2] (agent 1 × 10^−8 molar, 4 hours, 37° C., Table 6 experiment); 12.67% in the assay with human adipocytes [2] (setting [13]); 6.67% in the assay on human adipocytes [2] (agent 1 × 10^−9 molar, 4 hours, 37° C., Table 6 experiment); 11.11% with human adipocytes [2] (setting [14]); 8.97% in the assay on human adipocytes [2] (agent 1 × 10^−10 molar, 4 hours, 37° C., Table 6 experiment). Further, the “% Tritium Label Release with Agent” value is recorded as 9.9% in the assay on human adipocytes [2] (agent 1 × 10^−11 molar, 4 hours, 37° C., Table 5 experiment); 5.87% in the assay with human adipocytes [2] (agent 1 × 10^−11 molar, 4 hours, 37° C., Table 6 experiment); 16.99% in the assay on human adipocytes [2] (agent 5 × 10^−8 molar, 4 hours, 37° C., Table 5 experiment); 10.8% with human adipocytes [2] (agent 5 × 10^−8 molar, 4 hours, 37° C., Table 6 experiment); 14.14% in the assay with human adipocytes [2] (agent 5 × 10^−9 molar, 4 hours, 37° C., Table 5 experiment); 5.93% with human adipocytes [2] (agent 5 × 10^−9 molar, 4 hours, 37° C., Table 6 experiment). Further, the “% Tritium Label Release with Agent” value in the assay with human adipocytes [2] (agent 5 × 10^−10 molar, 4 hours, 37° C., Table 5 experiment) was determined as 11.21%; in the assay on human adipocytes [2] (agent 5 × 10^−10 molar, 4 hours, 37° C., Table 6 experiment) it was 7.58%; with human adipocytes [2] (agent 5 × 10^−11 molar, 4 hours, 37° C., Table 5 experiment), 10.62%; in the assay with human adipocytes [2] (agent 5 × 10^−11 molar, 4 hours, 37° C., Table 6 experiment), 6.96%; with human adipocytes [2] (agent 5 × 10^−12 molar, 4 hours, 37° C., Table 5 experiment), 10.12%; in the assay with human adipocytes [2] (agent 5 × 10^−12 molar, 4 hours, 37° C., Table 6 experiment), 6.81%.

As to “DFDMLRCMLGRVYRPCWQV (disulfide 7-16 (inferred); listed as Insect sp.) [melanocyte concentrating hormone, reference compound]”, in the assay with human adipocytes [1], the Lipid mobilizing activity entry is given as “No lipid mobilizing activity could be detected”.

In the case of `CC(C)NCC(O)COc1cccc2ccccc12` (stereo not shown) [Propanolol, propanolol], the “Inhibition by propanolol of glycerol release induced by isoproterenol” value in the assay with human adipocytes [3] (adipocytes) is “able to inhibit glycerol release”. In addition, the “Glycerol Release, No Agent (medium concentration in millimolar)” value is given as 0.0463 ± 0.0042 millimolar in the assay with human adipocytes [3] (1 × 10^−5 molar), 0.0417 ± .00072 millimolar in the assay on human adipocytes [3] (1 × 10^−6 molar), 0.0399 ± 0.0069 millimolar in the assay with human adipocytes [3] (1 × 10^−7 molar) and 0.0399 ± 0.0083 millimolar in the assay with human adipocytes [3] (1 × 10^−8 molar).
